Test results: PubChem BioAssay (NCI)
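Following 48 hours of exposure in 96-well plates, responses at five concentrations were used to interpolate endpoints linearly. GI50: concentration for 50% inhibition of growth. TGI marks complete inhibition of growth.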

Legend:
Test in all cases: growth of human tumour cells (NCI), 48 h
SF-268 CNS = test system: SF-268 CNS
MOLT-4 leukemia = test system: MOLT-4 leukemia
SF-539 CNS = test system: SF-539 CNS
HS 578T breast = test system: HS 578T breast
NCI-H460 lung = test system: NCI-H460 lung
NCI/ADR-RES ovarian = test system: NCI/ADR-RES ovarian
UACC-257 melanoma = test system: UACC-257 melanoma
CAKI-1 renal = test system: CAKI-1 renal
HOP-92 NSCLC = test system: HOP-92 NSCLC
M14 melanoma = test system: M14 melanoma
SK-MEL-28 melanoma = test system: SK-MEL-28 melanoma
HCT-116 colon = test system: HCT-116 colon
PC-3 prostate = test system: PC-3 prostate
MDA-MB-231 breast = test system: MDA-MB-231 breast
A549 NSCLC = test system: A549 NSCLC
BT-549 breast = test system: BT-549 breast
CCRF-CEM leukemia = test system: CCRF-CEM leukemia
MDA-MB-435 = test system: MDA-MB-435
IGROV1 ovarian = test system: IGROV1 ovarian
HCT-15 colon = test system: HCT-15 colon
HOP-62 NSCLC = test system: HOP-62 NSCLC
SK-MEL-5 melanoma = test system: SK-MEL-5 melanoma
U251 CNS = test system: U251 CNS
SN12C renal = test system: SN12C renal
COLO 205 colon = test system: COLO 205 colon
LOX IMVI melanoma = test system: LOX IMVI melanoma
DU-145 prostate = test system: DU-145 prostate
TK-10 renal = test system: TK-10 renal
SF-295 CNS = test system: SF-295 CNS
HL-60(TB) leukemia = test system: HL-60(TB) leukemia
SNB-19 CNS = test system: SNB-19 CNS
SW-620 colon = test system: SW-620 colon
RPMI-8226 leukemia = test system: RPMI-8226 leukemia
HCC-2998 colon = test system: HCC-2998 colon
T-47D breast = test system: T-47D breast
OVCAR-3 ovarian = test system: OVCAR-3 ovarian
RXF 393 renal = test system: RXF 393 renal
UACC-62 melanoma = test system: UACC-62 melanoma
A498 renal = test system: A498 renal
SK-MEL-2 melanoma = test system: SK-MEL-2 melanoma
NCI-H226 lung = test system: NCI-H226 lung
EKVX NSCLC = test system: EKVX NSCLC
786-0 renal = test system: 786-0 renal
MCF7 breast = test system: MCF7 breast
SK-OV-3 ovarian = test system: SK-OV-3 ovarian
MALME-3M melanoma = test system: MALME-3M melanoma
KM12 colon = test system: KM12 colon
ACHN renal = test system: ACHN renal
UO-31 renal = test system: UO-31 renal
HT29 colon = test system: HT29 colon
NCI-H522 lung = test system: NCI-H522 lung
NCI-H23 lung = test system: NCI-H23 lung
OVCAR-5 ovarian = test system: OVCAR-5 ovarian
K-562 leukemia = test system: K-562 leukemia
SNB-75 CNS = test system: SNB-75 CNS
OVCAR-4 ovarian = test system: OVCAR-4 ovarian
SR leukemia = test system: SR leukemia
OVCAR-8 ovarian = test system: OVCAR-8 ovarian

O=C(NCCNCCCNC(=O)c1cc(-c2ccccc2)nc2ccccc12)c1cccc(O)c1O showed a TGI (SF-268 CNS) of 16.4 µM, a TGI (MOLT-4 leukemia) greater than 100 µM and a TGI (SF-539 CNS) of 11.6 µM. The TGI (HS 578T breast) was greater than 100 µM, the TGI (NCI-H460 lung) was 41.6 µM and the TGI (NCI/ADR-RES ovarian) was greater than 100 µM. For the same compound, the TGI (UACC-257 melanoma) was 18.5 µM, the TGI (CAKI-1 renal) was greater than 100 µM and the TGI (HOP-92 NSCLC) was 62.9 µM. The TGI (M14 melanoma) was 10.4 µM, the TGI (SK-MEL-28 melanoma) was 18.5 µM and the TGI (HCT-116 colon) was 28.5 µM. For the same compound, the TGI (PC-3 prostate) was greater than 100 µM, the TGI (MDA-MB-231 breast) was greater than 100 µM and the TGI (A549 NSCLC) was greater than 100 µM. For the same compound, the TGI (BT-549 breast) was 11.9 µM, the TGI (CCRF-CEM leukemia) was greater than 100 µM and the TGI (MDA-MB-435) was 13.1 µM. For the same compound, the TGI (IGROV1 ovarian) was 28.9 µM, the TGI (HCT-15 colon) was 26.8 µM and the TGI (HOP-62 NSCLC) was 15.9 µM. It also gave a TGI (SK-MEL-5 melanoma) of 4.09 µM, a TGI (U251 CNS) of 17.6 µM and a TGI (SN12C renal) of 52.6 µM. It also gave a TGI (COLO 205 colon) of 22.4 µM, a TGI (LOX IMVI melanoma) greater than 100 µM and a TGI (DU-145 prostate) greater than 100 µM. It also gave a TGI (TK-10 renal) of 64.4 µM, a TGI (SF-295 CNS) of 28.7 µM and a TGI (HL-60(TB) leukemia) greater than 100 µM. It also gave a TGI (SNB-19 CNS) of 11.8 µM, a TGI (SW-620 colon) greater than 100 µM and a TGI (RPMI-8226 leukemia) of 15.3 µM. The TGI (HCC-2998 colon) was 17.4 µM, the TGI (T-47D breast) was 10.8 µM and the TGI (OVCAR-3 ovarian) was 26.3 µM. For the same compound, the TGI (RXF 393 renal) was 47.7 µM, the TGI (UACC-62 melanoma) was 12.1 µM and the TGI (A498 renal) was 55.9 µM. For the same compound, the TGI (SK-MEL-2 melanoma) was 15.1 µM, the TGI (NCI-H226 lung) was 36.3 µM and the TGI (EKVX NSCLC) was greater than 100 µM. The TGI (786-0 renal) was greater than 100 µM, the TGI (MCF7 breast) was 15.9 µM and the TGI (SK-OV-3 ovarian) was greater than 100 µM. It also gave a TGI (MALME-3M melanoma) of 20.2 µM, a TGI (KM12 colon) of 76.6 µM and a TGI (ACHN renal) of 20 µM. The TGI (UO-31 renal) was 14.9 µM, the TGI (HT29 colon) was 22.2 µM and the TGI (NCI-H522 lung) was 29.7 µM. For the same compound, the TGI (NCI-H23 lung) was 37.8 µM, the TGI (OVCAR-5 ovarian) was 13.9 µM and the TGI (K-562 leukemia) was 11.1 µM. It also gave a TGI (SNB-75 CNS) of 60.9 µM.

CC1(N)CCN(c2cccnc2NC(=O)c2nc(-c3ncccc3C(F)(F)F)cnc2N)CC1 was tested, and the GI50 (SF-268 CNS) was 31.5 µM, the TGI (SF-268 CNS) was greater than 100 µM and the GI50 (MOLT-4 leukemia) was 13.9 µM. It also gave a TGI (MOLT-4 leukemia) of 69.7 µM, a GI50 (SF-539 CNS) of 14.4 µM and a TGI (SF-539 CNS) of 33.7 µM. It also gave a GI50 (HS 578T breast) of 38.5 µM, a TGI (HS 578T breast) greater than 100 µM and a GI50 (NCI-H460 lung) of 41.1 µM. The TGI (NCI-H460 lung) was greater than 100 µM, the GI50 (NCI/ADR-RES ovarian) was 68.7 µM and the TGI (NCI/ADR-RES ovarian) was greater than 100 µM. The GI50 (UACC-257 melanoma) was 18.1 µM, the TGI (UACC-257 melanoma) was 34.1 µM and the GI50 (CAKI-1 renal) was 17.8 µM. For the same compound, the TGI (CAKI-1 renal) was greater than 100 µM, the GI50 (M14 melanoma) was 25.9 µM and the TGI (M14 melanoma) was 80.3 µM. The GI50 (SK-MEL-28 melanoma) was 25 µM, the TGI (SK-MEL-28 melanoma) was 85.6 µM and the GI50 (HCT-116 colon) was 13.5 µM. It also gave a TGI (HCT-116 colon) greater than 100 µM, a GI50 (PC-3 prostate) of 30.9 µM and a TGI (PC-3 prostate) greater than 100 µM. It also gave a GI50 (MDA-MB-231 breast) of 27.8 µM, a TGI (MDA-MB-231 breast) greater than 100 µM and a GI50 (A549 NSCLC) of 22 µM. The TGI (A549 NSCLC) was greater than 100 µM, the GI50 (BT-549 breast) was 18.2 µM and the TGI (BT-549 breast) was greater than 100 µM. It also gave a GI50 (CCRF-CEM leukemia) of 26.9 µM, a TGI (CCRF-CEM leukemia) greater than 100 µM and a GI50 (MDA-MB-435) of 41.6 µM. For the same compound, the TGI (MDA-MB-435) was greater than 100 µM, the GI50 (IGROV1 ovarian) was 3.67 µM and the TGI (IGROV1 ovarian) was greater than 100 µM. It also gave a GI50 (HCT-15 colon) of 25.1 µM, a TGI (HCT-15 colon) greater than 100 µM and a GI50 (HOP-62 NSCLC) of 37.5 µM. For the same compound, the TGI (HOP-62 NSCLC) was greater than 100 µM, the GI50 (SK-MEL-5 melanoma) was 18.3 µM and the TGI (SK-MEL-5 melanoma) was 33 µM. The GI50 (U251 CNS) was 21.8 µM, the TGI (U251 CNS) was greater than 100 µM and the GI50 (SN12C renal) was 16.2 µM. The TGI (SN12C renal) was greater than 100 µM, the GI50 (COLO 205 colon) was 5.48 µM and the TGI (COLO 205 colon) was 36.6 µM. The GI50 (LOX IMVI melanoma) was 21.5 µM, the TGI (LOX IMVI melanoma) was 53.4 µM and the GI50 (DU-145 prostate) was 35.3 µM. It also gave a TGI (DU-145 prostate) greater than 100 µM, a GI50 (TK-10 renal) of 4.35 µM and a TGI (TK-10 renal) greater than 100 µM. It also gave a GI50 (OVCAR-4 ovarian) of 21.5 µM, a TGI (OVCAR-4 ovarian) greater than 100 µM and a GI50 (SF-295 CNS) of 99.3 µM. For the same compound, the TGI (SF-295 CNS) was greater than 100 µM, the GI50 (HL-60(TB) leukemia) was 12.4 µM and the TGI (HL-60(TB) leukemia) was 37.8 µM. It also gave a GI50 (SNB-19 CNS) of 50 µM, a TGI (SNB-19 CNS) greater than 100 µM and a GI50 (SW-620 colon) of 28.4 µM. It also gave a TGI (SW-620 colon) greater than 100 µM, a GI50 (SR leukemia) of 3.3 µM and a TGI (SR leukemia) of 35.5 µM. The GI50 (RPMI-8226 leukemia) was 24.4 µM, the TGI (RPMI-8226 leukemia) was greater than 100 µM and the GI50 (HCC-2998 colon) was greater than 100 µM. The TGI (HCC-2998 colon) was greater than 100 µM, the GI50 (T-47D breast) was 17.5 µM and the TGI (T-47D breast) was 48.3 µM. It also gave a GI50 (OVCAR-3 ovarian) of 26.2 µM, a TGI (OVCAR-3 ovarian) greater than 100 µM and a GI50 (RXF 393 renal) of 10.1 µM. It also gave a TGI (RXF 393 renal) of 32.4 µM, a GI50 (UACC-62 melanoma) of 61.2 µM and a TGI (UACC-62 melanoma) greater than 100 µM. It also gave a GI50 (A498 renal) of 34.7 µM, a TGI (A498 renal) greater than 100 µM and a GI50 (SK-MEL-2 melanoma) of 50.9 µM. For the same compound, the TGI (SK-MEL-2 melanoma) was greater than 100 µM, the GI50 (NCI-H226 lung) was 35.9 µM and the TGI (NCI-H226 lung) was greater than 100 µM. The GI50 (EKVX NSCLC) was 34.9 µM, the TGI (EKVX NSCLC) was greater than 100 µM and the GI50 (786-0 renal) was 15.3 µM. It also gave a TGI (786-0 renal) greater than 100 µM, a GI50 (MCF7 breast) of 26.2 µM and a TGI (MCF7 breast) greater than 100 µM. The GI50 (SK-OV-3 ovarian) was 7.86 µM, the TGI (SK-OV-3 ovarian) was 73.8 µM and the GI50 (OVCAR-8 ovarian) was 40.2 µM. For the same compound, the TGI (OVCAR-8 ovarian) was greater than 100 µM, the GI50 (MALME-3M melanoma) was 17.6 µM and the TGI (MALME-3M melanoma) was 36.4 µM. For the same compound, the GI50 (KM12 colon) was 0.413 µM, the TGI (KM12 colon) was greater than 100 µM and the GI50 (ACHN renal) was 19.2 µM. The TGI (ACHN renal) was greater than 100 µM, the GI50 (UO-31 renal) was 16.6 µM and the TGI (UO-31 renal) was greater than 100 µM. For the same compound, the GI50 (HT29 colon) was 19.6 µM, the TGI (HT29 colon) was greater than 100 µM and the GI50 (NCI-H522 lung) was 15.1 µM. The TGI (NCI-H522 lung) was 47.9 µM, the GI50 (NCI-H23 lung) was 49.5 µM and the TGI (NCI-H23 lung) was greater than 100 µM. It also gave a GI50 (OVCAR-5 ovarian) of 20 µM, a TGI (OVCAR-5 ovarian) greater than 100 µM and a GI50 (K-562 leukemia) of 22.3 µM. For the same compound, the TGI (K-562 leukemia) was greater than 100 µM, the GI50 (SNB-75 CNS) was 18.9 µM and the TGI (SNB-75 CNS) was greater than 100 µM.
